Test results from patent publication US20260345621A1, “GABAA RECEPTOR MODULATORS AND USES THEREOF” (Engrail Therapeutics, Inc., priority 2022, published 2026).
“Also recorded” adds a separate entry of the source.

How the values were obtained:
[1] = biological target: human GABAA receptor α2/β3/γ2 (Homo sapiens, UniProt P18507+P47869); assay: SyncroPatch platform, PAM mode, GABAA α2/β3/γ2
EEG power = assay: Quantitative electroencephalography (qEEG); assay type: in vivo, human (healthy volunteers)
Protocol: (§1) A clinical study was developed to evaluate safety, tolerability, pharmacokinetics, and pharmacodynamics of Compound 1 at plasma steady-state in 40 healthy human volunteers. Compound 1 (provided as Compound 1 phosphate) was administered to participants as multiple ascending doses of 0.5 mg (N=6), 1.0 mg (N=6), 1.5 mg (N=6), 2.0 mg (N=6), or 5.0 mg (N=6) once daily (QD) for 12 days.
Pharmacodynamic analyses included the NEUROCART® assessments, cognitive assessments Visual Verbal Learning Task (VVLT), and quantitative electroencephalography (qEEG). All PD analyses were based on the PD Analysis Set. For all PD endpoints, the baseline was calculated as average of the Day −1 measurements.
NEUROCART®, VVLT, and qEEG assessments were listed and summarized (absolute and change from baseline) using descriptive statistics at baseline and at each post-baseline time point. To establish whether significant treatment effects could be detected on the repeatedly measured NEUROCART® parameters, each parameter was analyzed with a mixed model analysis of covariance (ANCOVA) with treatment, time, and treatment by time as fixed factors, participant as a random factor, and the (average) baseline measurement as a covariate.

alertness/sedation = assay: MOAA/S (Modified Observer's Assessment Alertness/Sedation); assay type: in vivo, human (healthy volunteers)
Protocol: as §1
Safety and tolerability of Compound 1 were assessed through listings and summaries by Compound 1 dose versus placebo (observed and change from baseline where applicable) for the following measures: treatment-emergent adverse events (TEAEs), clinical laboratory evaluation, vital signs, electrocardiogram, physical examination, pregnancy test, C-SSRS, and MOAA/S (Modified Observer's Assessment Alertness/Sedation). Continuous safety data were summarized with descriptive statistics (n, arithmetic mean, standard deviation (SD), median, minimum, and maximum) by dose level. Categorical safety data were summarized with incidence counts and percentages by dose level.
No clear difference from placebo in sedation across ascending Cohorts according to objective MOAA/S (Modified Observer's Assessment Alertness/Sedation) scoring was observed. A decrease in the MOAA/S score for alertness/sedation indicates impaired participant alertness and increased sedation as objectively determined by a clinician. […] For Compound 1 5.0 mg, a MOAA/S score of 2 (“Responds only after mild prodding or shaking”) was assessed for 1 participant. For the other participants in the Compound 1 5.0 mg Cohort and all other Cohorts, MOAA/S scores were above 3 indicating no difference from placebo in sedation across ascending Cohorts.

human GABAA receptor α2/β3/γ2, sequence (P47869 29-451): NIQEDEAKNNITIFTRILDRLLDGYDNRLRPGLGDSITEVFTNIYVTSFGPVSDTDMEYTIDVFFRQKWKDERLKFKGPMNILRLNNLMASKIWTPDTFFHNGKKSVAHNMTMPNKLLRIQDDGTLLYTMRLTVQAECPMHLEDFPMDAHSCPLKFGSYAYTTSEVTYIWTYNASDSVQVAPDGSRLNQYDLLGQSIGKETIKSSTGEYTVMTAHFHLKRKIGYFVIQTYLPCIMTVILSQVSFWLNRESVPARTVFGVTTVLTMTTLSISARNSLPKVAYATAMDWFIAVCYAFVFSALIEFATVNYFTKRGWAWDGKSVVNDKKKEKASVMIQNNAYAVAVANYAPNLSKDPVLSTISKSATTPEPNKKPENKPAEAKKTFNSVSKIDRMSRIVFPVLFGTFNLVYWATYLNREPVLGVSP
human GABAA receptor α2/β3/γ2, sequence (P18507 40-475): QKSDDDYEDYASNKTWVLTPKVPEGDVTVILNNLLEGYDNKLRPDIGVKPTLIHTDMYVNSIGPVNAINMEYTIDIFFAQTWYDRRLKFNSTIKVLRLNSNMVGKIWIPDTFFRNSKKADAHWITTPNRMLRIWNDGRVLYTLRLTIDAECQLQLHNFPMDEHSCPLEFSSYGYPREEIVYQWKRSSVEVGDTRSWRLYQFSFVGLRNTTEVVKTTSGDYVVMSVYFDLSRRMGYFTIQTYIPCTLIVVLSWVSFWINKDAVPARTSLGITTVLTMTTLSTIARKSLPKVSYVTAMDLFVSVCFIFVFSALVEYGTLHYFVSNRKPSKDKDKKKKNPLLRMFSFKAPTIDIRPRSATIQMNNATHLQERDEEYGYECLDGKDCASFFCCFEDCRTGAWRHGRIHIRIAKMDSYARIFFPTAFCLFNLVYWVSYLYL
human GABAA receptor α2/β3/γ2, sequence (P28472 26-473 partner): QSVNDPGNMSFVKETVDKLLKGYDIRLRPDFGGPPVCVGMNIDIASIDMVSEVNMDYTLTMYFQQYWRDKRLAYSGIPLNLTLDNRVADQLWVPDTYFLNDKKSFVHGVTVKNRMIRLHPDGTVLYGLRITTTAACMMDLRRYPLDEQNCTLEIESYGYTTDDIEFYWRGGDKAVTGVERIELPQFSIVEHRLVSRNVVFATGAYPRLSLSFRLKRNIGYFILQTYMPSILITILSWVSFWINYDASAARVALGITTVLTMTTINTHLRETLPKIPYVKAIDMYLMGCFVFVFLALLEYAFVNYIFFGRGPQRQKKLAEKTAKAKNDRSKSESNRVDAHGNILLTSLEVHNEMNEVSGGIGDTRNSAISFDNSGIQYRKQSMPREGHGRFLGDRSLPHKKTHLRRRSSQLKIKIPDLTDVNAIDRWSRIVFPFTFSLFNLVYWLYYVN

With `CC(C)(O)c1cnn2c(-c3ccc(F)c(-c4c(F)cccc4C#N)c3)cnc2n1` [Compound 1, 2′,6-difluoro-5′-(3-(2-hydroxypropan-2-yl)imidazo[1,2-b][1,2,4]triazin-7-yl)-[1,1′-biphenyl]-2-carbonitrile] the EC50 [1] was 0.82 nM, the Emax [1] was 89% and the “EEG gamma-power Pz-O2 (eyes open)” value (EEG power; any dose level) was “No treatment effect on Pz-O2 (eyes open) for any dose level”. The “EEG beta-power Pz-O1 or Pz-O2 (eyes open and closed)” value (EEG power; any dose, Day 1 or Day 12) was “No treatment effect on Pz-O1 or Pz-O2 (eyes open and eyes dosed) at any dose on Day 1 or Day 12”, the “EEG alpha-power Fz-Cz (eyes closed)” value (EEG power; dose and day in value) was “Significant decrease in Fz-Cz (eyes dosed) at 1.5 mg, 2.0 mg, and 5.0 mg on Day 12” and the “EEG alpha-power Fz-Cz (eyes open)” value (EEG power; dose and day in value) was “Significant decrease in Fz-Cz (eyes open) at 1.5 mg on Day 1 and at 1.5 mg, 2.0 mg, and 5.0 mg on Day 12”. For the same compound, the “EEG alpha-power Pz-O1 (eyes closed)” value (EEG power; dose and day in value) was “Significant decrease in Pz-O1 (eyes closed) at 1.5 mg on Day 1 and at 1.5 mg, 2.0 mg, and 5.0 mg on Day 12”, the “EEG alpha-power Pz-O1 (eyes open)” value (EEG power; dose and day in value) was “Significant decrease in Pz-O1 (eyes open) at 1.5 mg, 2.0 mg, and 5.0 mg on Day 12” and the “EEG alpha-power Pz-O2 (eyes closed)” value (EEG power; dose and day in value) was “Significant decrease in Pz-O2 (eyes dosed) at 1.5 mg, 2.0 mg, and 5.0 mg on Day 12”. For the same compound, the “EEG alpha-power Pz-O2 (eyes open)” value (EEG power; dose and day in value) was “Significant decrease in Pz-O2 (eyes open) at 1.5 mg, 2.0 mg, and 5.0 mg on Day 12”, the “EEG beta-power Fz-Cz (eyes closed)” value (EEG power; dose and day in value) was “Significant increase in Fz-Cz (eyes closed) at 2.0 mg and 5.0 mg on Day 1 but at none of the doses on Day 12” and the “EEG beta-power Fz-Cz (eyes open)” value (EEG power; dose and day in value) was “Significant increase in Fz-Cz (eyes open) at 2.0 mg and 5.0 mg on Day 1 and at 0.5 mg, 2.0 mg, and 5.0 mg on Day 12”. For the same compound, the “EEG delta-power Fz-Cz (eyes closed)” value (EEG power; dose and day in value) was “Significant decrease in Fz-Cz (eyes closed) at all dose levels on Day 12”, the “EEG delta-power Fz-Cz (eyes open)” value (EEG power; dose and day in value) was “Significant decrease in Fz-Cz (eyes open) only at 1.0 mg on Day 12” and the “EEG delta-power Pz-O1 (eyes closed)” value (EEG power; dose and day in value) was “Significant decrease in Pz-O1 (eyes closed) at 1.0 mg, 1.5 mg, 2.0 mg, and 5.0 mg on Day 12”. For the same compound, the “EEG delta-power Pz-O1 and Pz-O2 (eyes open)” value (EEG power; dose and day in value) was “Significant decrease in Pz-O1 and Pz-O2 (eyes open) at 1.5 mg, 2.0 mg, and 5.0 mg on Day 12”, the “EEG delta-power Pz-O2 (eyes closed)” value (EEG power; dose and day in value) was “Significant decrease in Pz-O2 (eyes closed) at all dose levels on Day 12” and the “EEG gamma-power Fz-Cz (eyes closed and eyes open)” value (EEG power; dose and day in value) was “Significant increase in Fz-Cz (eyes closed and eyes open) at 2.0 mg on Day 1 and at 2.0 mg and 5.0 mg on Day 12”. For the same compound, the “EEG gamma-power Pz-O1 (eyes closed and eyes open)” value (EEG power; dose and day in value) was “Significant decrease in Pz-O1 (eyes dosed and eyes open) at 1.5 mg, 2.0 mg, and 5.0 mg on Day 1”, the “EEG gamma-power Pz-O2 (eyes closed)” value (EEG power; dose and day in value) was “No treatment effect on Pz-O2 (eyes closed) for any dose level except for 5.0 mg on Day 12” and the “EEG theta-power Fz-Cz (eyes closed and eyes open)” value (EEG power; dose and day in value) was “Significant decrease in Fz-Cz (eyes closed and eyes open) at 1.0 mg, 1.5 mg, 2.0 mg, and 5.0 mg on Day 12”. For the same compound, the “EEG theta-power Pz-O1 and Pz-O2 (eyes closed and eyes open)” value (EEG power; dose and day in value) was “Significant decrease in Pz-O1 and Pz-O2 (eyes closed and eyes open) at 1.5 mg, 2.0 mg, and 5.0 mg on Day 12”, the “most consistent effects on qEEG” value (EEG power; doses >1.5 mg, Day 12) was “decreased alpha- and theta-power on Day 12 that were suggestive of dose- or concentration-dependence and target engagement, but the increased beta-power on Day 12 did not suggest dose- or concentration-dependence; also recorded: decreased alpha- and theta-power, and increased beta-power” and the MOAA/S score (alertness/sedation; 5.0 mg, 1 participant) was 2. For the same compound, the “sedation versus placebo by MOAA/S” value (alertness/sedation; 0.5-5.0 mg oral QD 12 days) was “little to no impairment of alertness and no frank sedation; also recorded: did not demonstrate a difference from placebo in sedation” and the MOAA/S score (alertness/sedation; other participants at 5.0 mg and all other Cohorts) was “above 3”.
